Measured values: US9278941B2, “Azole derivative and uses thereof” (Kureha Corporation, priority 2011, dated 2016)
Where two headings read alike, the source gives them in different places.

How the values were obtained:
[1] = system: Microdochium nivale; test: Antifungal test for pathogens (PDA plate), M.n; format: cell-based; settings: PDA plate medium
[2] = system: Pyricularia oryzae; format: cell-based; settings: PDA plate medium
[3] = system: Gibberella fujikuroi; test: Antifungal test for pathogens (PDA plate), G.f; format: cell-based; settings: PDA plate medium
[4] = system: wheat; test: Phytotoxicity evaluation of growth inhibition of wheat seeds, seed treatment; format: in vivo; settings: fifteen days after seeding, untreated 21 cm
Description: A pot test was used to perform a phytotoxicity evaluation of growth inhibition using a seed treatment. Compound (1(−)) or Compound (1(+)) was dissolved in DMSO so the treatment amount was 2 or 20 g ai/100 kg seeds, and the solution was smeared on wheat seeds in a vial, and eight wheat seeds were seeded in a 80 cm^2 pot. These were irrigated from below in a greenhouse. Fifteen days after seeding, the length of the wheat was evaluated.

[5] = system: Ustilago nuda; test: Antifungal test for pathogens (PDA plate), U.n; format: cell-based; settings: PDA plate medium
[6] = system: Rhizopus oryzae; test: Antifungal test for pathogens (PDA plate), R.o; format: cell-based; settings: PDA plate medium
[7] = system: Wheat leaf blight (Septoria tritici); test: Antifungal test against wheat leaf blight (PDA plate); settings: 19 days at 25° C.
Description: Wheat leaf blight (Septoria tritici) cultured beforehand in a medium plate was punched out with a 4 mm-diameter cork borer, and inoculated in the plate media containing the agent. After inoculation, they were cultured for 19 days at 25° C., and the growth of the fungus was determined by the diameter of the growth. The growth rate of the fungus in the plate media containing the agent was compared to the growth rate of the fungus in the plate medium not containing the agent, and the filamentous fungi inhibition rate was determined using the following equation. In the equation, R is the filamentous fungi inhibition rate (%), dc is the diameter of the fungal growth in the untreated plate media, and dt is the diameter of the fungal growth in the treated plate media. R=100(dc−dt)/dc

[8] = system: wheat leaf blight; test: Leaf blotch control effect on wheat, foliar spray treatment; settings: wettable powder foliar spray 1,000 L/ha, thirty days after inoculation
Description: After blow drying the sprayed leaves, the plants were sprinkled and inoculated with wheat leaf blight. Thirty days after inoculation, the morbidity of the wheat to powdery mildew was evaluated according to the criteria shown in Table 3, and the preventative value was calculated using the following equation. When the average morbidity of the sprayed plot was higher than the average morbidity of the unsprayed plot, the preventative value was 0%. Preventative value (%)=(1−(average morbidity of the sprayed plot/average morbidity of the unsprayed plot))×100.

[9] = system: wheat brown rust; test: Brown rust control effect on wheat, seed treatment; format: in vivo; settings: sixteen days after inoculation
Description: A pot test was performed to evaluate the brown rust controlling effect on wheat using seed treatment. Compound (1(−)) or Compound (1(+)) was dissolved in DMSO so the treatment amount was 20 g ai/100 kg seeds or 2 g ai/100 kg seeds, and the solution was smeared on wheat seeds in a vial, and eight wheat seeds were seeded in a 80 cm^2 pot. These were irrigated from below in a greenhouse. Fifteen days after seeding, the seedlings were inoculated with wheat brown rust and then kept for two days in a box. These were again irrigated from below in a greenhouse.

[10] = system: Botrytis cinerea; test: Antifungal test for pathogens (PDA plate), B.c; format: cell-based; settings: PDA plate medium
[11] = system: powdery mildew; test: Powdery mildew control effect on wheat, foliar spray treatment; format: in vivo; settings: wettable powder foliar spray 1,000 L/ha, seven days after inoculation
[12] = system: Pyrenophora graminea; test: Antifungal test for pathogens (PDA plate), P.g; format: cell-based; settings: PDA plate medium
[13] = system: Glomerella cingurata; test: Antifungal test for pathogens (PDA plate), G.c; format: cell-based; settings: PDA plate medium
[14] = system: Rhizoctonia solani; test: Antifungal test for pathogens (PDA plate), R.s; format: cell-based; settings: PDA plate medium
[15] = system: wheat leaf rust; test: Rust control effect on wheat, foliar spray treatment; format: in vivo; settings: wettable powder foliar spray 1,000 L/ha, twelve days after inoculation
[16] = system: Botrytis cinerea; test: Gray mold disease control effect on cucumbers, foliar spray treatment; format: in vivo; settings: cucumber gray mold, wettable powder foliar spray 1,000 L/ha, four days after inoculation
[17] = system: Fusarium graminearum; format: cell-based; settings: PDA plate medium
[18] = system: Pseudocercoporella herpotrichoides; test: Antifungal test for pathogens (PDA plate), P.h; format: cell-based; settings: PDA plate medium
[19] = system: Fusarium oxysporum; test: Antifungal test for pathogens (PDA plate), F.c; format: cell-based; settings: PDA plate medium
[20] = system: Gaeumannomyces graminis; test: Antifungal test for pathogens (PDA plate), G.g; format: cell-based; settings: PDA plate medium
[21] = system: Phaeosphaeria nodorum; test: Antifungal test for pathogens (PDA plate), P.n; format: cell-based; settings: PDA plate medium
[22] = system: Penicillium italicum; test: Antifungal test for pathogens (PDA plate), P.i; format: cell-based; settings: PDA plate medium
[23] = system: Rhynchosporium secalis; test: Antifungal test for pathogens (PDA plate), R.sec; format: cell-based; settings: PDA plate medium
[24] = system: Alternaria alternata; test: Antifungal test for pathogens (PDA plate), A.m; format: cell-based; settings: PDA plate medium
[25] = system: Cercospora beticola; test: Antifungal test for pathogens (PDA plate), C.b; format: cell-based; settings: PDA plate medium
[26] = system: Sclerotinia sclerotiorum; test: Antifungal test for pathogens (PDA plate), S.s; format: cell-based; settings: PDA plate medium

COC(=O)[C@]1(C)CC[C@H](Cc2ccc(Cl)cc2)[C@@]1(O)Cn1cncn1 (relative stereo) [Compound (1(−)), (1,2-cis, 1,3-cis)-3-(4-chlorobenzyl)-2-hydroxy-1-methyl-2-(1H-1,2,4-triazole-1-ylmethyl)cyclopentanecarboxylic acid methyl ester]
Antifungal Index of Each Strain M.n ([1]; Sample Conc. 1.25 mg/L): 3 (80%-70%)
Antifungal Index of Each Strain M.n ([1]; Sample Conc. 2.5 mg/L): 5 (>90%)
Antifungal Index of Each Strain M.n ([1]; Sample Conc. 5 mg/L): 5 (>90%)
Antifungal Index of Each Strain P.o ([2]; Sample Conc. 1.25 mg/L): 4 (90%-80%)
Antifungal Index of Each Strain P.o ([2]; Sample Conc. 2.5 mg/L): 5 (>90%)
Antifungal Index of Each Strain P.o ([2]; Sample Conc. 5 mg/L): 5 (>90%)
Antifungal Index of Each Strain G.f ([3]; Sample Conc. 1.25 mg/L): 5 (>90%)
Antifungal Index of Each Strain G.f ([3]; Sample Conc. 2.5 mg/L): 5 (>90%)
Antifungal Index of Each Strain G.f ([3]; Sample Conc. 5 mg/L): 5 (>90%)
Average Plant Length (cm) ([4]; wheat seed treatment 2 g ai/100 kg seeds): 11 cm
Average Plant Length (cm) ([4]; wheat seed treatment 20 g ai/100 kg seeds): 6 cm
Antifungal Index of Each Strain U.n ([5]; Sample Conc. 1.25 mg/L): 5 (>90%)
Antifungal Index of Each Strain U.n ([5]; Sample Conc. 2.5 mg/L): 5 (>90%)
Antifungal Index of Each Strain U.n ([5]; Sample Conc. 5 mg/L): 5 (>90%)
Antifungal Index of Each Strain R.o ([6]; Sample Conc. 1.25 mg/L): 5 (>90%)
Antifungal Index of Each Strain R.o ([6]; Sample Conc. 2.5 mg/L): 5 (>90%)
Antifungal Index of Each Strain R.o ([6]; Sample Conc. 5 mg/L): 5 (>90%)
Antifungal Index ([7]; sample conc. 0.31 mg/L): 1 (<60%)
Antifungal Index ([7]; sample conc. 0.63 mg/L): 2 (70%-60%)
Antifungal Index ([7]; sample conc. 1.25 mg/L): 4 (90%-80%)
Preventative Value (%) ([8]; sample conc. 12.5 mg/L): 37.5%
Preventative Value (%) ([8]; sample conc. 50 mg/L): 65%
Preventative Value (%) ([9]; seed treatment 2 g ai/100 kg seeds): 70%
Preventative Value (%) ([9]; seed treatment 20 g ai/100 kg seeds): 100%
Antifungal Index of Each Strain B.c ([10]; Sample Conc. 1.25 mg/L): 5 (>90%)
Antifungal Index of Each Strain B.c ([10]; Sample Conc. 2.5 mg/L): 5 (>90%)
Antifungal Index of Each Strain B.c ([10]; Sample Conc. 5 mg/L): 5 (>90%)
Preventative Value (%) ([11]; sample conc. 12.5 mg/L): 96%
Preventative Value (%) ([11]; sample conc. 50.0 mg/L): 98%
Antifungal Index of Each Strain P.g ([12]; Sample Conc. 0.08 mg/L): 2 (70%-60%)
Antifungal Index of Each Strain P.g ([12]; Sample Conc. 0.16 mg/L): 3 (80%-70%)
Antifungal Index of Each Strain P.g ([12]; Sample Conc. 0.31 mg/L): 4 (90%-80%)
Antifungal Index of Each Strain P.g ([12]; Sample Conc. 0.63 mg/L): 5 (>90%)
Antifungal Index of Each Strain G.c ([13]; Sample Conc. 1.25 mg/L): 5 (>90%)
Antifungal Index of Each Strain G.c ([13]; Sample Conc. 2.5 mg/L): 5 (>90%)
Antifungal Index of Each Strain G.c ([13]; Sample Conc. 5 mg/L): 5 (>90%)
Antifungal Index of Each Strain R.s ([14]; Sample Conc. 1.25 mg/L): 5 (>90%)
Antifungal Index of Each Strain R.s ([14]; Sample Conc. 2.5 mg/L): 5 (>90%)
Antifungal Index of Each Strain R.s ([14]; Sample Conc. 5 mg/L): 5 (>90%)
Preventative Value (%) ([15]; sample conc. 0.8 mg/L): 83.5%
Preventative Value (%) ([15]; sample conc. 3.1 mg/L): 92.9%
Preventative Value (%) ([16]; sample conc. 12.5 mg/L): 64.7%
Preventative Value (%) ([16]; sample conc. 50.0 mg/L): 100%
Antifungal Index of Each Strain F.g ([17]; Sample Conc. 1.25 mg/L): 5 (>90%)
Antifungal Index of Each Strain F.g ([17]; Sample Conc. 2.5 mg/L): 5 (>90%)
Antifungal Index of Each Strain F.g ([17]; Sample Conc. 5 mg/L): 5 (>90%)
Antifungal Index of Each Strain P.h ([18]; Sample Conc. 1.25 mg/L): 5 (>90%)
Antifungal Index of Each Strain P.h ([18]; Sample Conc. 2.5 mg/L): 5 (>90%)
Antifungal Index of Each Strain P.h ([18]; Sample Conc. 5 mg/L): 5 (>90%)
Antifungal Index of Each Strain F.c ([19]; Sample Conc. 1.25 mg/L): 5 (>90%)
Antifungal Index of Each Strain F.c ([19]; Sample Conc. 2.5 mg/L): 5 (>90%)
Antifungal Index of Each Strain F.c ([19]; Sample Conc. 5 mg/L): 5 (>90%)
Antifungal Index of Each Strain G.g ([20]; Sample Conc. 1.25 mg/L): 5 (>90%)
Antifungal Index of Each Strain G.g ([20]; Sample Conc. 2.5 mg/L): 5 (>90%)
Antifungal Index of Each Strain G.g ([20]; Sample Conc. 5 mg/L): 5 (>90%)
Antifungal Index of Each Strain P.n ([21]; Sample Conc. 1.25 mg/L): 5 (>90%)
Antifungal Index of Each Strain P.n ([21]; Sample Conc. 2.5 mg/L): 5 (>90%)
Antifungal Index of Each Strain P.n ([21]; Sample Conc. 5 mg/L): 5 (>90%)
Antifungal Index of Each Strain P.i ([22]; Sample Conc. 0.08 mg/L): 1 (<60%)
Antifungal Index of Each Strain P.i ([22]; Sample Conc. 0.16 mg/L): 1 (<60%)
Antifungal Index of Each Strain P.i ([22]; Sample Conc. 0.31 mg/L): 3 (80%-70%)
Antifungal Index of Each Strain P.i ([22]; Sample Conc. 0.63 mg/L): 5 (>90%)
Antifungal Index of Each Strain R.sec ([23]; Sample Conc. 0.08 mg/L): 5 (>90%)
Antifungal Index of Each Strain R.sec ([23]; Sample Conc. 0.16 mg/L): 5 (>90%)
Antifungal Index of Each Strain R.sec ([23]; Sample Conc. 0.31 mg/L): 5 (>90%)
Antifungal Index of Each Strain R.sec ([23]; Sample Conc. 0.63 mg/L): 5 (>90%)
Antifungal Index of Each Strain A.m ([24]; Sample Conc. 1.25 mg/L): 3 (80%-70%)
Antifungal Index of Each Strain A.m ([24]; Sample Conc. 2.5 mg/L): 4 (90%-80%)
Antifungal Index of Each Strain A.m ([24]; Sample Conc. 5 mg/L): 5 (>90%)
Antifungal Index of Each Strain C.b ([25]; Sample Conc. 0.08 mg/L): 5 (>90%)
Antifungal Index of Each Strain C.b ([25]; Sample Conc. 0.16 mg/L): 5 (>90%)
Antifungal Index of Each Strain C.b ([25]; Sample Conc. 0.31 mg/L): 5 (>90%)
Antifungal Index of Each Strain C.b ([25]; Sample Conc. 0.63 mg/L): 5 (>90%)
Antifungal Index of Each Strain S.s ([26]; Sample Conc. 1.25 mg/L): 5 (>90%)
Antifungal Index of Each Strain S.s ([26]; Sample Conc. 2.5 mg/L): 5 (>90%)
Antifungal Index of Each Strain S.s ([26]; Sample Conc. 5 mg/L): 5 (>90%)

CC1(C)CCC(Cc2ccc(Cl)cc2)C1(O)Cn1cncn1 (centres unmarked) [Metconazole, reference compound]
Antifungal Index ([7]; sample conc. 0.31 mg/L): 1 (<60%)
Antifungal Index ([7]; sample conc. 0.63 mg/L): 2 (70%-60%)
Antifungal Index ([7]; sample conc. 1.25 mg/L): 4 (90%-80%)
Preventative Value (%) ([8]; sample conc. 12.5 mg/L): 0%
Preventative Value (%) ([8]; sample conc. 50 mg/L): 62.5%
Preventative Value (%) ([15]; sample conc. 0.8 mg/L): 34.1%
Preventative Value (%) ([15]; sample conc. 3.1 mg/L): 81.1%
